The experiment has as its system S. aureus. As to the kind of experiment: Antiseptics and combinations in soap base C, mixed one minute with S. aureus. The class given is cell-based. To be noted: antiseptics in soap base C; for Colony counts: 0.1 ml of 10^8 cfu/ml S. aureus mixed for one minute; for Log10 reduction from Control: S. aureus, one minute, control = soap base. As for the experimental part:
To 0.9 ml of the base, 0.1 ml of 10^8 cfu/ml of S. aureus was added and mixed for one minute, after which 9.0 ml of drug inactivating media was added. The samples were mixed well and serial dilutions were made with drug inactivating media. Various dilutions were plated on TSA plates. As the control, […] of soap base was used.

As for `N=C(NCCCCCCNC(=N)NC(=N)Nc1ccc(Cl)cc1)NC(=N)Nc1ccc(Cl)cc1.O=C(O)[C@H](O)[C@@H](O)[C@H](O)[C@H](O)CO.O=C(O)[C@H](O)[C@@H](O)[C@H](O)[C@H](O)CO` [0.2% CHG, Chlorhexidine gluconate], the Colony counts was 4.1 × 10^6 and the “Log10 reduction from Control” value was 0.92.
For the molecule `Oc1cc(Cl)ccc1Oc1ccc(Cl)cc1Cl` [0.5% TC, Triclosan], the Colony counts is given as 4.3 × 10^6 and the “Log10 reduction from Control” value came out at 0.89.
Take `CC(C)(C)CC(C)(C)c1ccc(OCCOCC[N+](C)(C)Cc2ccccc2)cc1.[Cl-]` [0.18% BZT, Benzathonium chloride]: the Colony counts is on record as 3.9 × 10^6 and the “Log10 reduction from Control” value is on record as 0.94.
In the case of Polyhexamethylene biguanide [0.3% PHMB], the Colony counts is on record as 2.0 × 10^6 and the “Log10 reduction from Control” value came out at 1.17.

The values are drawn from US20100216889A1, “PROLONGED EFFECT DISINFECTANT CLEANSER” (THE TRUSTEES OF COLUMBIA UNIVERSITY IN THE CITY OF, priority 2007, published 2010).
